Assay results from ChEMBL document CHEMBL4190181 (Medchemcomm, 2016).

Tests used:
[1] = Drug level in rat liver microsomes treated with (+/-)-7-Chloro-5-(3-furanyl)-3-methyl-3,4-dihydro-2H-1,2,4-benzothiadiazine 1,1-dioxide assessed as CYP450-mediated metabolite formation at 10 uM after 60 mins by LC-MS/MS analysis; format: ADME; conditions: 1 h
Rattus norvegicus = species: Rattus norvegicus; assay: Positive allosteric modulation of AMPAR in Sprague-Dawley rat primary culture of cerebellar neurons assessed as potentiation of kainate-induced current at 10 uM by whole-cell patch clamp electrophysiological method relative to control
[2] = Half life of the compound in pH 7.4 buffer assessed as compound racemization; format: physicochemical

For `C[C@@H]1Nc2c(-c3ccoc3)cc(Cl)cc2S(=O)(=O)N1`, the Drug metabolism [1] was “Metabolite_Detected” and the Activity (Rattus norvegicus) was 2590%.
An Activity (Rattus norvegicus) of 1600% and a half-life [2] of 60 min were found for `CC1Nc2c(-c3ccoc3)cc(Cl)cc2S(=O)(=O)N1` (racemic) in this work.
With `C[C@H]1Nc2c(-c3ccoc3)cc(Cl)cc2S(=O)(=O)N1` the Drug metabolism [1] was “Metabolite_Detected” and the Activity (Rattus norvegicus) was 488%.
An Activity (Rattus norvegicus) of 8% was found for `CC1Nc2ccc(Cl)cc2S(=O)(=O)N1` (configuration not stated) in this work.
